Test results from US20100120887A1, “SUSTAINED RELEASE FORMULATION OF MELATONIN” (THE TRUSTEES OF COLUMBIA UNIVERSITY IN THE CITY OF NEW YORK, priority 2007, published 2010).

Assay: Initial clinical evaluation, open clinical treatment of circadian sleep disorders and depression (case reports)
Type: in vivo, human
Text: The present invention describes tablet formulation, in vitro and in vivo pharmacokinetics in a healthy, middle-aged subject group, and a range of potential uses. In the past three years, the present invention has been used in open clinical treatment of a variety of cases comprising circadian sleep disorders and depression. The strategy for treatment concentrates on serious cases, from which application to less severe cases—far more common population-wide—can be inferred. For example, in Delayed Sleep Phase Disorder (DSPD), the patient cannot fall asleep before wee hours of the night or early morning because of misalignment of the internal circadian timing system with external day and night. […] Melatonin is the chronobiotic par exemplar. Milder circadian misalignment is highly prevalent in the population, often starting in adolescence. A typical example is the worker who must maintain a 9-5 schedule but cannot fall asleep before 1 AM (“early insomnia”), leaving six hours for sleep availability, leading to daytime fatigue, disorientation, lapses of alertness, and weekend oversleeping that can trigger depressed mood. Such people comprise a primary market for the present invention, with the prospect of reduced reliance on sleeping pills.
Thus far, an ensemble of chronotherapeutic interventions has been used in clinical trials. […]

In the case of `COc1ccc2[nH]cc(CCNC(C)=O)c2c1` [melatonin, N-acetyl-5-methoxytryptamine], the “sleep onset and depressive symptoms under treatment” value (Case 2: seasonal depression, sleep not before 1 AM, melatonin at 6:30 PM plus light therapy 45 minutes) is reported as “go to sleep at 11:30 PM with remission of depressive symptoms” and the “sleep onset under treatment” value (Case 3: history of seasonal depression, melatonin around 9 PM plus intermittent light therapy) is reported as “able to sleep at midnight without effort”.
